Measurements from article PMC4417724 (Nature, 2014).

Experiments:
[1] = target: FLAG-RTCB (human tRNA ligase complex) with recombinant Archease (Homo sapiens, UniProt Q9Y3I0); assay: radiolabelled guanylation, SDS-PAGE autoradiography; format: biochemical; settings: covalent RTCB-guanylate intermediate; labelled compound; Archease 10 μM, ATP, Mg(OAc)2, pH 7.5, 37 °C
[2] = target: recombinant hexahistidine tagged human Archease (human); assay: SPR

FLAG-RTCB (human tRNA ligase complex) with recombinant Archease, sequence (Q9Y3I0 whole entry): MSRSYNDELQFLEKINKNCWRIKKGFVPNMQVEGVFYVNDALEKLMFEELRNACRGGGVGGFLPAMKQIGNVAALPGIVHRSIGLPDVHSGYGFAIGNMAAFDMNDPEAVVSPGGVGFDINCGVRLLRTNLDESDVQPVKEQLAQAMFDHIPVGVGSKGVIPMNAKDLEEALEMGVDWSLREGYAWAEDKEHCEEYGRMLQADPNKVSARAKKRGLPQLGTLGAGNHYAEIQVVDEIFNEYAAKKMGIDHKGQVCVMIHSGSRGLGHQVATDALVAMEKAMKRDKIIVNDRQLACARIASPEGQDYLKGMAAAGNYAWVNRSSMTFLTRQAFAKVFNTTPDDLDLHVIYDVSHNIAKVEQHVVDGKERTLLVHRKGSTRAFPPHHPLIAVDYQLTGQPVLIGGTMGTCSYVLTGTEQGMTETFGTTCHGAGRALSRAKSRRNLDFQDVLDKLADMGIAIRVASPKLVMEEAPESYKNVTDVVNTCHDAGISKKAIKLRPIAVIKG
FLAG-RTCB (human tRNA ligase complex) with recombinant Archease, sequence (Q8IWT0 2-167 partner): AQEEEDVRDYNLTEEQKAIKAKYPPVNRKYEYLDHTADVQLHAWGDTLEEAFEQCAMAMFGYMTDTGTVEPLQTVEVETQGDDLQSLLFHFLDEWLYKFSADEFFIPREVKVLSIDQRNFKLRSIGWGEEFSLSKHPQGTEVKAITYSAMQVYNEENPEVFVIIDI
FLAG-RTCB (human tRNA ligase complex) with recombinant Archease, sequence (Q92499 whole entry partner): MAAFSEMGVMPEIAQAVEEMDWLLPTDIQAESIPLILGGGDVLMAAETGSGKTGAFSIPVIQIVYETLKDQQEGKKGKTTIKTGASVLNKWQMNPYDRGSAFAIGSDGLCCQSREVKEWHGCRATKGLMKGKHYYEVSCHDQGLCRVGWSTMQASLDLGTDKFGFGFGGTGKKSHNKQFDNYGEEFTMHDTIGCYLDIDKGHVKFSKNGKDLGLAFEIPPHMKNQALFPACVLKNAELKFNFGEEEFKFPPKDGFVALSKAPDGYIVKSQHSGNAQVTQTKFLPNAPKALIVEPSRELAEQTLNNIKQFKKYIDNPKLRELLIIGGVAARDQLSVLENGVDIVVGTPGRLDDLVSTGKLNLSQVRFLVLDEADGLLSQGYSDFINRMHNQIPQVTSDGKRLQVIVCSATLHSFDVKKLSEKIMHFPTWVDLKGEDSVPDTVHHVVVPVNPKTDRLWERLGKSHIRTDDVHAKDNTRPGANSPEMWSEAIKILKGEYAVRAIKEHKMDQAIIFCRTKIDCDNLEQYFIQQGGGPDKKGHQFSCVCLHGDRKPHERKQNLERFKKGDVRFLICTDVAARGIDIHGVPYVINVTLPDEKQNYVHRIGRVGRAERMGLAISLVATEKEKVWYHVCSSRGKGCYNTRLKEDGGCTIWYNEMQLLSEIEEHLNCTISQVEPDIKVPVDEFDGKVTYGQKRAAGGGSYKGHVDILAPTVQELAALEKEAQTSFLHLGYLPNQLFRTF
FLAG-RTCB (human tRNA ligase complex) with recombinant Archease, sequence (Q52LJ0 whole entry partner): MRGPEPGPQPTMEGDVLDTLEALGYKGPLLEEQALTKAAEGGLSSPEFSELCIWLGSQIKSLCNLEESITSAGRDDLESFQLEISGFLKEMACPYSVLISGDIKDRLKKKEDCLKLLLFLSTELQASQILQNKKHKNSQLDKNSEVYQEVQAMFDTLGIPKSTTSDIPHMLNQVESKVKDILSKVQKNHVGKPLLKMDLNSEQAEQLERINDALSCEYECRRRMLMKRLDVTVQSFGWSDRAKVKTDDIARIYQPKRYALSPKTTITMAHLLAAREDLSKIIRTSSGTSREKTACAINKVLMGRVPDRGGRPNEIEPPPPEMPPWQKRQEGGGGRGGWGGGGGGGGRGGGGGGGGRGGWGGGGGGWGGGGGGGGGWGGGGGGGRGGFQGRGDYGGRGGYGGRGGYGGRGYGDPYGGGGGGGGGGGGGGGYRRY
FLAG-RTCB (human tRNA ligase complex) with recombinant Archease, sequence (Q9BVC5 whole entry partner): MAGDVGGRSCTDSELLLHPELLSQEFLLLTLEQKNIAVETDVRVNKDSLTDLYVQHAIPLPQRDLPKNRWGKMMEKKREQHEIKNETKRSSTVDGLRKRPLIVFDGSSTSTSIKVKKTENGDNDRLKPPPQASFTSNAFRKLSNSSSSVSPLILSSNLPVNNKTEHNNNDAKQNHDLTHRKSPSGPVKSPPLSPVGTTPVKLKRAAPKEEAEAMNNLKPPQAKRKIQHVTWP
FLAG-RTCB (human tRNA ligase complex) with recombinant Archease, sequence (Q9Y224 whole entry partner): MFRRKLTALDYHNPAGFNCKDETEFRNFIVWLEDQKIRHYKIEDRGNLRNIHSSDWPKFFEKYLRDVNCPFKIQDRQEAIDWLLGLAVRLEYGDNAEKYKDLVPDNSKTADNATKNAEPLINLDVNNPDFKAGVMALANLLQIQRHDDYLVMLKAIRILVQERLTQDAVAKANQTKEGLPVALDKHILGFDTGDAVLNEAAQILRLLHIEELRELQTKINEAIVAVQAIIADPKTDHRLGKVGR

| Molecule | radiolabelled guanylation, SDS-PAGE autoradiography [1] | Kd [2] [nM] |
| --- | --- | --- |
| Nc1nc2c(ncn2[C@@H]2O[C@H](COP(=O)(O)OP(=O)(O)OP(=O)(O)O)[C@@H](O)[C@H]2O)c(=O)[nH]1 [GTP] | Formation of a radiolabeled band corresponding to guanylated human FLAG-RTCB required the addition of WT Archease |  |
| FLAG-RTCB complexes (human tRNA ligase complex affinity-purified by FLAG-RTCB) (from UniProt Q9Y3I0;Q92499;Q52LJ0;Q9Y224;Q9BVC5) |  | 1.8 |
